# Measured values published in US20030207933A1, “Compositions and methods for increasing the sensitivity of apoptosis-resistant tumor cells to inducers of apoptosis” (priority 2002, published 2003).
# How the values were obtained:
# [1] = system: Nuclei from HL-60 Bcl-2 cells; experiment: AP24-induced DNA fragmentation in nuclei isolated from pretreated cells; format: cell-based, human; conditions: for % DNA Fragmentation: cells incubated with W-188 5 μg/ml 4 hr, 20 hr assay
# Source text: Nuclei isolated from HL-60-Bcl-2 cells were resistant to AP24-induced DNA fragmentation, as expected (Wright, S. C., et al., Cancer Res., 1998, 58:5570).
# HL-60-Bcl-2 cells = experiment: 10 day colony formation assay, HL-60-Bcl-2; format: cell-based, human; conditions: not shown
# Source text: (§1) LY-ar was highly resistant to apoptosis induced by y-radiation. […] The apparent selective effects of W-188 may be due to the preferential intracellular accumulation of porphyrin compounds in transformed cells as opposed to normal cells reported previously (Bugelski, P. J., et al., Cancer Res., 1981, 41:4606).
# AP24 = experiment: Etoposide-induced activation of AP24 (AAPVase) in HL-60 and PW leukemia lines; format: cell-based, human; conditions: for AP24 Activity (AAPVase, nmol/mg/hr): etoposide 50 μM + W-188 5 μg/ml, 3 h
# LY-ar cells = experiment: Radiation-induced DNA fragmentation in LY-ar cells; format: cell-based, murine; conditions: γ-radiation in the presence of W-188; FIG. 10
# Protocol: Additional studies were performed to determine if W-188 could also sensitize cells that naturally express high levels of Bcl-2. Clones were isolated from the murine B cell lymphoma, LY, that naturally express low levels of Bcl-2 (LY-as) or high levels (LY-ar), as described previously (Mirkovic, N., et al., Oncogene, 1997, 15:1461).
# as §1
# [2] = system: Normal human venous endothelial cells; experiment: Cytotoxicity to normal venous endothelial cells (MTT dye reduction assay); format: cell-based
# [3] = as above; format: cell-based, human; conditions: human, normal venous endothelial cells, 6 h
# HL-60 Bcl-2 cells = experiment: DNA fragmentation (release of 3H-labeled DNA fragments) in Bcl-2-transfected HL-60 cells; format: cell-based, human
# Ramos B lymphoma cells = experiment: Dox cytotoxicity by trypan blue exclusion in Ramos cells; format: cell-based; conditions: 24 hr
# Protocol: In the present study, the sensitizing activity of W-188 and W-143 was tested in the Raji and Ramos cell lines. Since these two human B lymphoma lines naturally express high levels of anti-apoptotic Bcl-2 proteins, they may be more clinically relevant than the transfected HL-60-Bcl-2 line.
# The sensitizing effects of W-143 and W-188 were first tested on these lines in vitro. […] Ramos cells were cultured with different concentrations of Dox with and without W-143 or W-188 at 20 μg/ml for 24 hr, and then viability assessed microscopically by counting at least 100 cells.
# [4] = system: normal rat intestinal epithelial cells; experiment: Toxic effects of etoposide on normal intestinal epithelial cells; format: cell-based
# Source text: as §1
# [5] = Body weight of RIF-1 tumor bearing mice
# Source text: Groups of five mice each were inoculated s.c. with RIF-1 cells. The tumors were allowed to grow for 12 days to a size of 0.5 cm diameter, which was designated day 0. […] The mice were weighed and the tumor size measured every day.
# PW cells = experiment: Subcellular distribution of W-188 in PW cells (absorbance at 380 nm); format: in vitro ADME, human
# Protocol: A method to measure the subcellular localization of this compound was developed by the inventors of the present invention. Because of its distinctive absorbance spectrum, W-188 can be detected in cell and tissue extracts by measuring absorbance at 380 nm, and quantitated relative to a standard curve constructed with known amounts of W-188. HL-60 and PW cells containing vector control or overexpressing Bcl-2 were incubated with W-188 followed by cell lysis and isolation of nuclei, mitochondria, and cytotol by differential centrifugation.
# Furthermore, it can be seen that nuclei and mitochondria from cells overexpressing Bcl-2 accumulated higher levels of W-188 than the vector control cells. These findings are consistent with the hypothesis that W-188 may counteract the protective effects of Bcl-2 mediated at both the mitochondria as well as the nucleus.
# HS-treated U937 cells = experiment: DNA fragmentation in heat shock-treated U937 cells; format: cell-based
# Protocol: U937 cells received either no heat shock (HS) treatment or HS treatment at 42° C. for 30 min followed by recovery for 3 hr. The cells were then treated with etoposide or TNF with and without W-188, which alone was nontoxic. After 3 hr, DNA fragmentation was measured by release of ^3H-labeled DNA. As expected, U937 cells exposed to HS treatment were completely resistant to etoposide or TNF-induced DNA fragmentation (FIG. 7).
# RIF-1 fibrosarcoma = RIF-1 fibrosarcoma tumor growth in vivo; parameters: species or system mice; conditions: for Effect on tumor growth: five i.p. injections
# Source text: The present study tested in the ability of W-188 to synergize with Dox and inhibit tumor growth in vivo. The RIF-1 fibrosarcoma model was used because this model has been well-characterized, and naturally expresses high Bcl-2 levels and has a consistent growth pattern (Nahabedian, M. Y., et al., J. Natl. Can. Inst., 1988, 80:739; Chang, M-J., et al., Cancer Res., 1994, 54:5380; Srivastana, M., et al., J. Biol. Chem., 2001, 276:15481).
# Groups of five mice each were inoculated s.c. with RIF-1 cells. The tumors were allowed to grow for 12 days to a size of 0.5 cm diameter, which was designated day 0. The mice were then given five i.p. injections every other day with vehicle, Dox 2.5 mg/kg, Dox 5.0 mg/kg, W-188 100 mg/kg, and Dox 5.0 mg/kg+W-188 100 mg/kg. The mice were weighed and the tumor size measured every day.
# The protocol was similar to that described for the W-188 experiment in Example 8, except that in this study, mice with established tumors received only three injections of W-143 or Dox every other day starting on day 0.
structure (smiles),measurement,setting,value
"CCC1=C(C)C(/C=C2\NC(=O)C(C)=C2CC)=NC/1=C\c1[nH]c(/C=C2\NC(=O)C(C)=C2CC)c(C)c1CC [W-188, etiobiliverdin-IV]",% DNA Fragmentation,[1]; AP24 dilution 1:10,44 ± 4.8%
same,% DNA Fragmentation,[1]; AP24 dilution 1:20,19 ± 1.0%
same,Sensitivity of isolated nuclei to AP24-induced DNA fragmentation (in words),[1]; pretreatment of HL-60-Bcl-2 cells,restored the sensitivity of the isolated nuclei to AP24-induced DNA fragmentation
same,Sensitization to cell death mediated by etoposide and chlorambucil,HL-60-Bcl-2 cells,sensitized HL-60-Bcl-2 and LY-ar cells to cell death mediated by etoposide and chlorambucil
same,Activation of AP24 (in words),AP24; HL-60-Bcl-2 and PW-Bcl-2 exposed to apoptosis inducers,did not activate AP24 unless they were also treated with W-188
same,"AP24 Activity (AAPVase, nmol/mg/hr)",AP24; HL-60 Bcl-2,124 nmol/mg/h
same,"AP24 Activity (AAPVase, nmol/mg/hr)",AP24; PW Bcl-2,129 nmol/mg/h
same,Radiation-induced DNA fragmentation,LY-ar cells,underwent DNA fragmentation at levels equal to or exceeding that of LY-as treated with radiation
same,Effect on toxic effects of etoposide on normal cells,[2],did not increase the toxic effects of etoposide
same,Augmentation of killing of endothelial cells by etoposide or YW-200,[2]; W-188 at concentrations as high as 50 μg/mL,did not augment the killing of endothelial cells by etoposide or YW-200
same,"cytotoxicity at 6 h, 25 μg/mL","[3]; W-188 25 μg/mL, etoposide 0 μM",7 ± 1.5%
same,"cytotoxicity at 6 h, 50 μg/mL","[3]; W-188 50 μg/mL, etoposide 0 μM",22 ± 2%
same,"cytotoxicity at 6 h, 25 μg/mL",[3]; YW-200 0.01 μM + W-188 25 μg/mL,38 ± 4.9%
same,"cytotoxicity at 6 h, 50 μg/mL",[3]; YW-200 0.01 μM + W-188 50 μg/mL,59 ± 2.2%
same,"cytotoxicity at 6 h, 25 μg/mL",[3]; etoposide 100 μM + W-188 25 μg/mL,11 ± 1.5%
same,"cytotoxicity at 6 h, 50 μg/mL",[3]; etoposide 100 μM + W-188 50 μg/mL,21 ± 1.6%
same,% DNA Fragmentation,"HL-60 Bcl-2 cells; Exp 1, etoposide 5 μM + compound 5 μM",40%
same,% DNA Fragmentation,"HL-60 Bcl-2 cells; Exp 1, etoposide 5 μM + compound 10 μM",76%
same,% DNA Fragmentation,"HL-60 Bcl-2 cells; Exp 2, etoposide 10 μM + compound 10 μM",62%
same,% DNA Fragmentation,"HL-60 Bcl-2 cells; Exp 3, etoposide 5 μM + compound 10 μM",92%
same,% DNA Fragmentation,"HL-60 Bcl-2 cells; Exp 4, etoposide 5 μM + compound 10 μM",59%
same,% DNA Fragmentation,"HL-60 Bcl-2 cells; Exp 5, etoposide 10 μM + compound 10 μM",55%
same,"Sensitization to DNA fragmentation induced by TNF, etoposide and UV light","HL-60 Bcl-2 cells; TNF 5 ng/ml, etoposide 20 μM, UV 0.08 J/cm^2, 5 h, FIG. 4A",dose-dependently sensitized HL-60 Bcl-2 cells to DNA fragmentation induced by all three agents
same,Optimal doses giving DNA fragmentation comparable with HL-60 neo cells,"HL-60 Bcl-2 cells; TNF, etoposide or UV, 5 h",25 to 50 µg/mL
same,Toxicity of compound alone,"HL-60 Bcl-2 cells; W-188 alone, no apoptosis inducer",nontoxic
same,Bcl-2-sensitizing activity (in words),"HL-60 Bcl-2 cells; tumor cells overexpressing Bcl-2, Table 4",most potent
same,Toxicity of compound alone,"Ramos B lymphoma cells; 20 μg/ml, no Dox",completely nontoxic
same,Increase of cytotoxicity mediated by Dox,"Ramos B lymphoma cells; compound 20 μg/ml + Dox, FIG. 6",over two fold
same,Effect on toxic effects of etoposide on normal cells,[4],did not increase the toxic effects of etoposide
same,Body weight,"[5]; W-188 + Dox 5 mg/kg, FIG. 12","did lose weight, but not much more than those mice treated with Dox 5 mg/kg alone"
same,Body weight,"[5]; W-188 alone, data not shown",did not show any decrease in weight
same,"W-188 (μg/mg protein), Cytosol",PW cells; PW Bcl-2,0 μg/mg protein
same,"W-188 (μg/mg protein), Mitochondria",PW cells; PW Bcl-2,4.5 μg/mg protein
same,"W-188 (μg/mg protein), Nuclei",PW cells; PW Bcl-2,166 μg/mg protein
same,"W-188 (μg/mg protein), Cytosol",PW cells; PW neo,0 μg/mg protein
same,"W-188 (μg/mg protein), Mitochondria",PW cells; PW neo,2.5 μg/mg protein
same,"W-188 (μg/mg protein), Nuclei",PW cells; PW neo,133 μg/mg protein
same,Etoposide or TNF-induced DNA fragmentation after HS treatment,"HS-treated U937 cells; HS 42° C. 30 min, recovery 3 hr, 3 hr assay, FIG. 7",levels of etoposide or TNF-induced DNA fragmentation comparable to that seen in normal U937 cells
same,Toxicity of compound alone,HS-treated U937 cells; W-188 alone,nontoxic
same,Effect on tumor growth,RIF-1 fibrosarcoma; W-188 100 mg/kg + Dox 5.0 mg/kg,synergistically inhibited tumor growth
same,Tumor size relative to vehicle control,"RIF-1 fibrosarcoma; W-188 100 mg/kg + Dox 5.0 mg/kg, day 12, p=0.0005",only half the size of the vehicle control
same,Effect on tumor growth,"RIF-1 fibrosarcoma; W-188 100 mg/kg alone, data not shown",no effect on tumor growth
